In patent US20240423973A1, “COMPOUNDS, PHARMACEUTICAL COMPOSITIONS, AND METHODS FOR THE TREATMENT, PREVENTION, OR MANAGEMENT OF HYPERPROLIFERATIVE DISORDERS” (VINCERX PHARMA GMBH, priority 2021, published 2024):

Experiments:
[1] = Compound stability in rat plasma; assay type: in vitro ADME; conditions: rat plasma at 37° C., 4-hour assay, detected by LC-MS
Experimental: (§1) Compound B1, Compound C2, and Compound C3 were evaluated for stability in plasma and/or buffer. Compound B1 was stable in rat plasma at 37° C. (FIG. 1 panel (a)) and in buffer at pH 7.4 (FIG. 1 panel (b)) for the duration of the 4-hour assay.
Method for measurement of stability in rat and human plasma: 1 mg of the test compound is dissolved in 0.5 ml acetonitrile/dimethylsulfoxide 1:1. For complete dissolution the HPLC vial is shaken and sonicated. While vortexing 20 μl of this solution are added to 1 ml 37° C. warm plasma. After 0.17, 0.5, 1, 1.5, 2 and 4 hours the enzymatic reaction is stopped by adding 100 μl of the compound plasma solution to a vial containing 300 μl acetonitrile/buffer pH3 (80:20) at RT. The mixture is centrifuged at 5000 rpm for 10 minutes. The supernatant is analyzed by HPLC to determine the amount of the test compound and up to two byproducts. To values result from a processed sample immediately taken after vortexing with plasma at RT. The peak areas (in percentage) are used for quantification. All data is given as percent area of the initial compound at to.

SUM149 = assay: Cytotoxicity in vitro in the presence and absence of elastase (MTT assay); assay type: cell-based; conditions: SUM149 cells, 72 h
Summary of the method: (§2)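 Cells grown 24 h, then dosed in triplicate at 10^−5 to 10^−13 M, with or without 10 nM elastase, for 72 h at 37° C, 5% CO2. MTT added 4 h, overnight detergent lysis, absorbance at 570 nm, relative to untreated cells.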

786-O = assay: as above; assay type: cell-based, human; conditions: 786-O cells, 72 h
Summary of the method: as §2

NCI H292 = assay: as above; assay type: cell-based, human; conditions: NCI H292 cells, 72 h
Summary of the method: as §2

HT29 = assay: as above; assay type: cell-based, human; conditions: HT29 cells, 72 h
Summary of the method: as §2

[2] = Compound stability in buffer; assay type: physicochemical; conditions: buffer at pH 4, within 24 hours
Experimental: as §1
Method for measurement of stability in buffer: 0.15 mg of the test compound are solved in 0.1 ml dimethylsulfoxide and 0.4 ml acetonitrile. For complete dissolution the HPLC vial with the sample solution is shaken and sonicated. Then 1.0 ml of the respective buffer solution is added, and the sample is vortexed. The sample solution is analysed by HPLC to determine the amount of the test compound and up to two byproducts at a particular time over a period of 24 h at 37° C. to values result from a sample immediately taken after vortexing with buffer at RT. The peak areas (in percentage) are used for quantification.

avb3 = assay: EC50 [nM]
Excerpt: Table printed on a drawing sheet, FIG. 4
Head of the field: EC50 [nM]
The patent's description of the figure: FIG. 4: avb3 binding of selected examples and EC50 values
First copying reader's note: EC50 values relate to the αvβ3 binding assay plotted next to the table; R^2 is the goodness of fit of the curve.
Where the first naming reader finds the target: description_of_the_figure: FIG. 4: avb3 binding of selected examples and EC50 values

SMILES | ester cleavage in rat plasma [1] | IC50 (SUM149; compound alone (no elastase)) [nM] | IC50 (SUM149; with 10 nM elastase) [nM] | IC50 (786-O; compound alone (no elastase)) [nM] | IC50 (786-O; with 10 nM elastase) [nM] | IC50 (NCI H292; compound alone (no elastase)) [nM] | IC50 (NCI H292; with 10 nM elastase) [nM] | IC50 (HT29; compound alone (no elastase)) [nM] | IC50 (HT29; with 10 nM elastase) [nM] | release of free payload in buffer [2] | EC50 (avb3) [nM]
CCCNC(=O)Nc1cccc(S(=O)(=O)Nc2cccc([C@@H](CC(=O)O)NC(=O)Nc3ccc(NC(=O)NCCOCCOCCOCCC(=O)N[C@@H](CC(=O)OCCCN(C)C)C(=O)N4CCC[C@H]4C(=O)N[C@H](C(=O)O[C@]4(CC)C(=O)OCc5c4cc4n(c5=O)Cc5c-4nc4ccccc4c5CC)C(C)C)cc3)c2)c1 [Compound C2, (3R)-3-[({4-[({(9S)-9-[(2S)-2-{[(2S)-1-{[(4S)-4,11-diethyl-3,14-dioxo-3,4,12,14-tetrahydro-1H-pyrano[3′,4′:6,7]indolizino[1,2-b]quinolin-4-yl]oxy}-3-methyl-1-oxobutan-2-yl]carbamoyl}pyrrolidine-1-carbonyl]-2-methyl-7,11-dioxo-6,14,17,20-tetraoxa-2,10-diazadocosan-22-yl}carbamoyl)amino]phenyl}carbamoyl)amino]-3-[3-({3-[(propylcarbamoyl)amino]benzene-1-sulfonyl}amino)phenyl]propanoic acid] | slow ester cleavage and release of the aspartate moiety | 0.1 to 1 | 0.01 to 0.1 | 10 to 100 | 0.1 to 1 | 10 to 100 | 0.1 to 1 | 1.1 to 10 | 0.1 to 1 | No release of free payload is detected | 
CCCNC(=O)Nc1cccc(S(=O)(=O)Nc2cccc(C(CC(=O)O)NC(=O)Nc3ccc(NC(=O)NCCOCCOCCOCCC(=O)NCCCCC(NC(=O)CCOCCOCCOCCNC(=O)Nc4ccc(NC(=O)NC(CC(=O)O)c5cccc(NS(=O)(=O)c6cccc(NC(=O)NCCC)c6)c5)cc4)C(=O)NCCOCCOCCOCCC(=O)NC(CC(=O)O)C(=O)N4CCCC4C(=O)NC(C(=O)OC4(CC)C(=O)OCc5c4cc4n(c5=O)Cc5c-4nc4ccccc4c5CC)C(C)C)cc3)c2)c1 (stereo not drawn) [Compound A3] |  |  |  |  |  |  |  |  |  |  | 55
CCCNC(=O)Nc1cccc(S(=O)(=O)Nc2cccc([C@@H](CC(=O)O)NC(=O)Nc3ccc(NC(=O)NCCC(=O)NCCCC[C@H](NC(=O)CCNC(=O)Nc4ccc(NC(=O)N[C@H](CC(=O)O)c5cccc(NS(=O)(=O)c6cccc(NC(=O)NCCC)c6)c5)cc4)C(=O)NCCOCCOCCOCCC(=O)N[C@@H](CC(=O)O)C(=O)N4CCC[C@H]4C(=O)N[C@H](C(=O)O[C@]4(CC)C(=O)OCc5c4cc4n(c5=O)Cc5c-4nc4ccccc4c5CC)C(C)C)cc3)c2)c1 [Compound A2] |  | 10 to 100 | 0.01 to 0.1 | 10 to 100 | 0.01 to 0.1 | 10 to 100 | 0.01 to 0.1 | > 100 | 0.01 to 0.1 |  | 97
CCCNC(=O)Nc1cccc(S(=O)(=O)Nc2cccc([C@@H](CC(=O)O)NC(=O)Nc3ccc(NC(=O)NCCOCCOCCOCCC(=O)N[C@@H](CC(=O)OCCCCN(C)C)C(=O)N4CCC[C@H]4C(=O)N[C@H](C(=O)O[C@]4(CC)C(=O)OCc5c4cc4n(c5=O)Cc5c-4nc4ccccc4c5CC)C(C)C)cc3)c2)c1 [Compound C3, (3R)-3-[({4-[({(10S)-10-[(2S)-2-{[(2S)-1-{[(4S)-4,11-Diethyl-3,14-dioxo-3,4,12,14-tetrahydro-1H-pyrano[3′,4′:6,7]indolizino[1,2-b]quinolin-4-yl]oxy}-3-methyl-1-oxobutan-2-yl]carbamoyl}pyrrolidine-1-carbonyl]-2-methyl-8,12-dioxo-7,15,18,21-tetraoxa-2,11-diazatricosan-23-yl}carbamoyl)amino]phenyl}carbamoyl)amino]-3-[3-({3-[(propylcarbamoyl)amino]benzene-1-sulfonyl}amino)phenyl]propanoic acid] | slow ester cleavage and release of the aspartate moiety | 1.1 to 10 | 0.01 to 0.1 | 10 to 100 | 0.1 to 1 | 10 to 100 | 0.1 to 1 | 10 to 100 | 0.1 to 1 | No release of free payload is detected | 
